Test results taken from ChEMBL document CHEMBL4842339, “8-Hydroxyquinolin-2(1H)-one analogues as potential β2-agonists: Design, synthesis and activity study” (Eur J Med Chem, 2021).

How the values were obtained:
[1] = […] agonist activity at beta2 adrenergic receptor isolated from guinea pig tracheal smooth muscle assessed as inhibition of histamine-induced tracheal smooth muscle contraction by measuring maximal relaxant effect relative to control; format: functional; settings: Cavia porcellus
[2] = molecular target: Beta-2 adrenergic receptor (Homo sapiens, UniProt P07550); experiment: Agonist activity at human beta2 adrenoreceptor overexpressed in HEK293 cells assessed as cAMP accumulation; format: functional, cell-based
Beta-2 adrenergic receptor, sequence (P07550 whole entry): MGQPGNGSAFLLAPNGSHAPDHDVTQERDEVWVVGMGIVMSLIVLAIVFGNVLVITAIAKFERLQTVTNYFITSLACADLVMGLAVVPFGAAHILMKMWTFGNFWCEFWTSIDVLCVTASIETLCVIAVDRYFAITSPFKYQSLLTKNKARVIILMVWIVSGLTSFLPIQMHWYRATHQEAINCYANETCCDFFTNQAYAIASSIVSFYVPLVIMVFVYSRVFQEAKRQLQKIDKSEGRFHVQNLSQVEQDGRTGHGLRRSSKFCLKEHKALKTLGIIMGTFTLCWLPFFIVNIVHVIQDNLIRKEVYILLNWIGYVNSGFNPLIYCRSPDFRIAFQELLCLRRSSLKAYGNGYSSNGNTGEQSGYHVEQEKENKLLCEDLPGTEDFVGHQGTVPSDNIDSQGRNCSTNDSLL

[3] = molecular target: Beta-1 adrenergic receptor (Homo sapiens, UniProt P08588); experiment: Agonist activity at human beta1 adrenoreceptor overexpressed in HEK293 cells assessed as cAMP accumulation; format: functional, cell-based
Beta-1 adrenergic receptor, sequence (P08588 whole entry): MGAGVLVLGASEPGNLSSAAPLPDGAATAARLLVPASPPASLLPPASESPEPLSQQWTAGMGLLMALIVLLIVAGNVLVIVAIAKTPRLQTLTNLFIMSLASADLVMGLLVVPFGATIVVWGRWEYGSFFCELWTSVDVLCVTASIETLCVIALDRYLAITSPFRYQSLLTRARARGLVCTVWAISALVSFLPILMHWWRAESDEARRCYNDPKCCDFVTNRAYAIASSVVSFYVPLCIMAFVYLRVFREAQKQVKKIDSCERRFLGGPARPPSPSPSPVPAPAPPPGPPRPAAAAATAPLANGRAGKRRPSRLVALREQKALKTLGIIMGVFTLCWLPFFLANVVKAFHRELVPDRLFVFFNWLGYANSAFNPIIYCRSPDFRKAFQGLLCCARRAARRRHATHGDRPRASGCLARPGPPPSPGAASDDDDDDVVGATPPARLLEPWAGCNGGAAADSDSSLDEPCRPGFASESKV

[4] = […] agonist activity at beta2 adrenergic receptor isolated from guinea pig tracheal smooth muscle assessed as inhibition of histamine-induced tracheal smooth muscle contraction; format: functional, Cavia porcellus
[5] = species: Cavia porcellus; experiment: Myorelaxant effect in guinea pig model of histamine-induced smooth muscle contraction assessed as time duration of action measured over 12 hrs; format: functional; settings: time hrs >12
[6] = species: Cavia porcellus; experiment: Myorelaxant effect in guinea pig model of histamine-induced smooth muscle contraction assessed as time of onset of action measured over 12 hrs; format: functional

EC50 [2] [nM] | EC50 [3] [nM] | Compound | Emax [1] [%] | pD2 [4] | Time [5] [h] | Time [6] [min]
0.0832 | 10000 | COc1cc(CCCNCC(O)c2ccc(O)c3[nH]c(=O)ccc23)cc(OC)c1OC.Cl (stereo unspecified) | 111 | 7.74 |  | 
0.0309 | 7.76 | COc1ccc(CCC(C)(C)NCC(O)c2ccc(O)c3[nH]c(=O)ccc23)cc1.Cl (stereo unspecified) | 161 | 7.86 |  | 
0.0288 |  | COc1ccccc1CC[C@@H](C)NC[C@H](O)c1ccc(O)c2[nH]c(=O)ccc12 |  |  |  | 
0.0575 | 17 | Cc1ccccc1CCCNCC(O)c1ccc(O)c2[nH]c(=O)ccc12.Cl (stereo unspecified) | 125 | 7.72 |  | 
0.0182 | 44.7 | COc1ccc(CCC(C)NCC(O)c2ccc(O)c3[nH]c(=O)ccc23)cc1.Cl (stereo unspecified) | 104 | 7.48 |  | 
 | 2.63 | Cc1cccc(CCC(C)(C)NCC(O)c2ccc(O)c3[nH]c(=O)ccc23)c1 (stereo unspecified) | 152 |  |  | 
0.0224 |  | COc1ccccc1CCC(C)(C)NCC(O)c1ccc(O)c2[nH]c(=O)ccc12 (stereo unspecified) | 141 |  |  | 
0.0182 | 2.4 | CC(C)(CCc1cccc(O)c1)NCC(O)c1ccc(O)c2[nH]c(=O)ccc12.Cl (stereo unspecified) | 103 | 6.37 |  | 
 | 7.59 | COc1cccc(CCC(C)(C)NCC(O)c2ccc(O)c3[nH]c(=O)ccc23)c1 (stereo unspecified) | 112 |  |  | 
0.0245 |  | O=c1ccc2c(C(O)CNCCCc3cccc(F)c3)ccc(O)c2[nH]1 (stereo unspecified) |  |  |  | 
0.0148 |  | COc1ccccc1CCC(C)NCC(O)c1ccc(O)c2[nH]c(=O)ccc12 (stereo unspecified) |  |  |  | 
0.038 | 14.5 | Cc1cccc(CCCNCC(O)c2ccc(O)c3[nH]c(=O)ccc23)c1.Cl (stereo unspecified) | 144 | 7.66 |  | 
0.0214 | 2.57 | COc1cccc(CCC(C)NCC(O)c2ccc(O)c3[nH]c(=O)ccc23)c1.Cl (stereo unspecified) | 196 | 7.33 | >12 | 4.97
0.0955 |  | Cc1ccc(CCCNCC(O)c2ccc(O)c3[nH]c(=O)ccc23)cc1 (stereo unspecified) |  |  |  | 
0.0468 | 16.2 | Cl.O=c1ccc2c(C(O)CNCCCc3ccc(F)cc3)ccc(O)c2[nH]1 (stereo unspecified) | 153 | 7.39 |  | 
0.0282 |  | O=c1ccc2c(C(O)CNCCCc3cccc(C(F)(F)F)c3)ccc(O)c2[nH]1 (stereo unspecified) |  |  |  | 
 | 35.5 | COc1cc(CCC(C)NCC(O)c2ccc(O)c3[nH]c(=O)ccc23)cc(OC)c1OC (stereo unspecified) | 141 |  |  | 
0.0214 |  | O=c1ccc2c(C(O)CNCCCc3cc(F)cc(F)c3)ccc(O)c2[nH]1 (stereo unspecified) |  |  |  | 

Second part, the molecule before the results:

Compound | EC50 [2] [nM] | EC50 [3] [nM] | Emax [1] [%] | pD2 [4] | Time [5] [h] | Time [6] [min]
CC(CCc1ccc(O)cc1)NCC(O)c1ccc(O)c2[nH]c(=O)ccc12 (stereo unspecified) | 0.0107 |  | 71.3 |  |  | 
CC(CCc1cccc(F)c1)NCC(O)c1ccc(O)c2[nH]c(=O)ccc12 (stereo unspecified) |  | 3.09 | 163 |  |  | 
Cc1ccc(CCC(C)NCC(O)c2ccc(O)c3[nH]c(=O)ccc23)cc1.Cl (stereo unspecified) | 0.038 | 10.5 | 95.9 | 7.58 |  | 
CC(CCc1cccc(Cl)c1)NCC(O)c1ccc(O)c2[nH]c(=O)ccc12 (stereo unspecified) | 0.0724 |  | 105 |  |  | 
CC(CCc1ccc(F)cc1)NCC(O)c1ccc(O)c2[nH]c(=O)ccc12 (stereo unspecified) | 0.0282 |  | 100 |  |  | 
CC(CCc1ccccc1Cl)NCC(O)c1ccc(O)c2[nH]c(=O)ccc12.Cl (stereo unspecified) | 0.0339 | 4.57 | 95.3 | 7.87 |  | 
CC(C)(CCc1cccc(Cl)c1)NCC(O)c1ccc(O)c2[nH]c(=O)ccc12.Cl (stereo unspecified) |  |  |  |  | >12 | 3.43
COc1ccc(CC(C)(C)NC[C@H](O)c2cc(O)cc3c2OCC(=O)N3)cc1 [OLODATEROL] |  | 123 | 170 |  |  | 2.31
CC(C)NCC(O)c1ccc(O)c(O)c1 (stereo unspecified) [ISOPROTERENOL] |  |  | 181 |  |  | 3.1
CC(CCc1ccc(Cl)cc1)NCC(O)c1ccc(O)c2[nH]c(=O)ccc12 (stereo unspecified) |  | 6.31 |  |  |  | 
Cc1ccccc1CCC(C)NCC(O)c1ccc(O)c2[nH]c(=O)ccc12 (stereo unspecified) |  | 6.76 |  |  |  | 
Cc1ccccc1CCC(C)(C)NCC(O)c1ccc(O)c2[nH]c(=O)ccc12 (stereo unspecified) | 0.0178 |  |  |  |  | 
OCc1cc(C(O)CNCCCCCCOCCCCc2ccccc2)ccc1O (stereo unspecified) [SALMETEROL] |  |  | 172 |  |  | 4.23
Cc1cccc(CCC(C)NCC(O)c2ccc(O)c3[nH]c(=O)ccc23)c1 (stereo unspecified) |  | 4.07 |  |  |  | 
Cc1ccc(CCC(C)(C)NCC(O)c2ccc(O)c3[nH]c(=O)ccc23)cc1 (stereo unspecified) |  | 24.5 |  |  |  | 
CC(CCc1cccc(O)c1)NCC(O)c1ccc(O)c2[nH]c(=O)ccc12 (stereo unspecified) | 0.0135 |  |  |  |  | 
CC(C)(CCc1ccccc1Cl)NCC(O)c1ccc(O)c2[nH]c(=O)ccc12 (stereo unspecified) |  | 1.74 | 124 |  |  | 
